According to US11000555B2, “Method for preparing a limax compound and therapeutic use thereof” (GUANGXI JIUFU BIOTECHNOLOGY CO., LTD, priority 2017, dated 2021):
Structures can show the parent of a compound that is named as a salt. Marks after values point to notes of the source that are not given here.

Key:
mice [1] = experiment: Mouse spontaneous activity test; type: in vivo, Kunming mice
Protocol: Forty Kunming mice, half males and half females, were fasted for 12 h but free to drink water. The mice were randomly divided into four groups: a blank control group, a low does Compound group (0.4 g/kg, ig), a high dose Compound group (0.8 g/kg, ig) and a positive drug control group (Estazolam, 2 mg/kg). The mice were placed into the YLS-1A multifunctional recorder for spontaneous activities of small animals. After 5 minutes of adaptation, the number of the mice's spontaneous activities before administration were recorded, and the recording lasted for 10 minutes. The room was kept quiet during recording, at a room temperature of 20-24° C. After this, each group of mice was administered according to the above doses, and the number of spontaneous activities within 10 min were recorded 45 min later. The blank control group was given the same volume of normal saline (ig).

mice [2] = experiment: Inducing the mice to sleep by a subthreshold dose of pentobarbital sodium; type: in vivo, Kunming mice; details: Estazolam 2 mg/kg; pentobarbital sodium 30 mg/kg ip; n = 20
Protocol: Eighty Kunming mice, half males and half females, were fasted for 12 h but free to drink water. The mice were randomly divided into four groups: a blank control group, a low does Compound group (0.4 g/kg, ig), a high dose Compound group (0.8 g/kg, ig) and a positive drug control group (Estazolam, 2 mg/kg). each group of mice was administered according to the above doses (ig), and the blank control group was given the same volume of normal saline. Forty-five minutes later, each mouse was given (ip) 30 mg/kg pentobarbital sodium, and the number of mice falling asleep within 15 min was recorded by taking the absence of righting reflex more than 1 min as the indicator of falling asleep.

mice [3] = experiment: Acetic acid writhing test of mice; type: in vivo, Kunming mice; details: methadone 20 mg/kg, delivery route im; 0.6% acetic acid ip; in 20 min
Protocol: Forty Kunming mice, male, were fasted for 12 h before the experiment but free to drink water. They were randomly divided into 4 groups: a blank control group, a low dose Compound group, a high dose Compound group, and a positive control group. […] The mice were administered (ig) at a low dose (0.4 g/kg) and a high dose (0.8 g/kg) of the compound, at a volume of 0.2 ml per 10 g body weight. The positive control group was administered (ip) methadone (20 mg/kg) and the blank control group was given (ig) the same volume of normal saline. Forty-five minutes after administration, each mouse was given (ip) 0.6% acetic acid, 0.2 ml for each. The mice were then observed for writhing reaction, with abdominal contraction and hind limb extension or hip elevation regarded as positive. Times of writhing in 20 min were recorded starting from 5 min after acetic acid injection. The analgesic effect was evaluated by taking completely inhibiting writhing reaction induced by acetic acid as an indicator.

[4] = test system: morphine-induced place preference of mice; experiment: Conditioned place preference of morphine-induced mice; type: in vivo, Kunming mice
Protocol: The mice were acclimatized for 3 days, the natural place preference time of the mice was measured before the administration, so that the mice with obvious preference on one cuboid of the experimental box were excluded to clear the effect of unconditional place preference on the results. […] The observation was conducted under sound insulation conditions. […] Thus, the white cuboid was used as the non-preferred side (i.e., the companion box).
After 6 consecutive days of training and administration, the mice developed conditioned place preference.
Each group was administered for 3 consecutive days.

morphine-dependent mice = experiment: Therapeutic effect on naloxone-induced withdrawal symptoms of morphine-dependent mice; type: in vivo, Kunming mice; details: methadone 20 mg/kg ig
Protocol: The model of morphine-dependent mice was replicated by the dose-increasing method. […] Group (1) was a blank control group, injected subcutaneously (sc) with normal saline (0.2 ml/10 g), and groups (2)˜(5) were used to replicate the model of morphine-dependent mice by the dose-increasing method.
The administration continued for 3 days for each group. Mice were free to drink and eat. Naloxone (8.0 mg/kg, ip) was given 1 h after administrations on d1 and d3 during the treatment to induce withdrawal symptoms, and jumping reaction in 30 min and body weights before and after the inducement were observed.

mice [5] = experiment: Hot plate test of analgesic effect; type: in vivo, Kunming mice; details: hot plate 55° C.; for Pain threshold: methadone 20 mg/kg, cut-off 60 seconds
Protocol: Kunming mice, female, were selected. And a selection among them was conducted prior to the test. The hot plate was adjusted to 55° C.±0.5° C., the female mice were placed on the hot plate, and the duration (in seconds) required from placing the mice on the hot plate until the mice licked their feet as the normal pain threshold of the mice. All those who licked their feet within 5 s or after 30 s and jumped were abandoned. Forty qualified mice were selected and randomly divided into 4 groups: a blank control group, a low dose Compound group, a high dose Compound group, and a positive control group, 10 mice per group. The normal pain threshold of each mouse was measured repeatedly, and the average of two measurements was taken as the pre-administration pain threshold of the mouse. Each group was then administered (at doses and by delivery routes as above), 0.2 ml per 10 g body weight. The pain threshold of each group was measured 60 min and 120 min after administration. If a mouse remained unresponsive for more than 60 seconds on the hot plate, its pain threshold was calculated as 60 seconds.

mice [6] = experiment: Physical dependence test: induced withdrawal test for the mice; details: morphine hydrochloride sc twice a day, increasing 25 to 150 mg/kg daily, 7 days, naloxone 8 mg/kg ip
Protocol: The daily doses were 25, 50, 75, 100, 125, 150 mg/kg according to the dose increasing principle, increased day by day, reached 150 mg/kg on day 6 which was adopted the same on day 7. The compound group was administered (ig) twice daily (8:00 am, 8:00 pm) at daily doses of 0.6, 1.2, 1.8, 2.4, 3.0, 3.6 g/kg. The dose increased every day from 0.6 g/kg to 3.6 g/kg on day 6 which was adopted the same on day 7. The negative control group was given (ig) the same volume of vegetable oil every day at the same time and for the same times as the compound group. On day 7, naloxone (8 mg/kg, ip) was given to each group of mice to induce withdrawal. The jump reaction within 30 min and weight change one hour before and after inducement were observed. Weight loss value=weight before inducement−weight after inducement.

rats = experiment: Physical dependence test: induced withdrawal test for the rats; details: morphine hydrochloride sc twice a day, increasing 5 to 60 mg/kg, 7 days; naloxone 5 mg/kg ip day 8
Protocol: The compound group was administered (ig) twice a day according to the dose increasing principle, at daily doses of 0.5, 1.0, 1.5, 2.0, 2.5, 3.0 g/kg. The dose was increased every day from 0.5 g/kg to 3.0 g/kg on day 6 which was adopted the same on day 7. The negative control group was given (ig) the same volume of vegetable oil per day at the same time and for the same times as the compound group. On day 8, the rats in each group were given naloxone (5 mg/kg, ip) to induce withdrawal, and the withdrawal status of the rats within 30 min and the weight change one hour before and after the inducement were observed. The evaluation criteria of withdrawal symptoms of rats were established by referring to the Tomoji Yanagita evaluation criteria and our pre-experimental results (see Appendix Table 17). The withdrawal scores and weight loss values of each group of rats were statistically processed. Weight loss value=weight before inducement−weight after inducement.

Clc1ccc2c(c1)C(c1ccccc1)=NCc1nncn1-2 [Estazolam, reference compound]
Number of spontaneous activities (mice [1]; After administration (45 min), Estazolam 2 mg/kg): 45.4 ± 34.43**^ΔΔ per 10 min
Number of spontaneous activities (mice [1]; Before administration, Estazolam group): 136.6 ± 43.35 per 10 min
Number of the mice showing disappearance of righting reflex (mice [2]): 18 per group

CCC(=O)C(CC(C)N(C)C)(c1ccccc1)c1ccccc1 (stereo not drawn) [methadone, Methadone hydrochloride, reference compound]
Times of writhing (mice [3]): 8.7 ± 3.74
Duration of mice staying in companion box ([4]; After administration, methadone 20 mg/kg ig 3 days + morphine 9 mg/kg sc, 15 min observation): 499.6 ± 123.26*^ΔΔ s
Duration of mice staying in companion box ([4]; Before administration (base line), methadone 20 mg/kg + morphine 9 mg/kg group): 333.7 ± 114.95 s
Numbers of jumping reactions of mice (mice of n = 10) (morphine-dependent mice; d 1): 10
Numbers of jumping reactions of mice, percentage (morphine-dependent mice; d 1): 100%
Weight change: body weights of mice before and after induced withdrawal (morphine-dependent mice; d 1): 0.22 ± 0.19 g
Numbers of jumping reactions of mice (mice of n = 10) (morphine-dependent mice; d 3): 10
Numbers of jumping reactions of mice, percentage (morphine-dependent mice; d 3): 100%
Weight change: body weights of mice before and after induced withdrawal (morphine-dependent mice; d 3): 0.46 ± 0.23 g
Pain threshold (mice [5]; 60 min): 58.4 ± 9.05 s
Pain threshold (mice [5]; 120 min): 51.5 ± 10.11 s
Pain threshold before administration (mice [5]; base line, methadone group): 24.4 ± 5.72 s

CN1CC[C@]23c4c5ccc(O)c4O[C@H]2[C@@H](O)C=C[C@H]3[C@H]1C5.Cl [Morphine, Morphine hydrochloride, reference compound]
Weight loss (mice [6]): 0.57 ± 0.25 g
Number of jumps (mice [6]; 30 min): 64.10 ± 15.29
Induced withdrawal symptom score (rats): 76.9 ± 14.53
